From patent US20200085734A1, “PHARMACEUTICAL DOSAGE FORMS CONTAINING TASK-I AND TASK-3 CHANNEL INHIBITORS, AND THE USE OF SAME IN BREATHING DISORDER THERAPY” (priority 2016, published 2020)
Marks after values point to notes of the source that are not given here.

Test system: collapsibility of the upper airways
Experiment: Animal model of obstructive sleep apnoea in the pig (collapse of the upper airways under negative pressure after nasal administration)
Format: in vivo, German Landrace pigs
Source text: The effects of the formulations according to the invention of the inhibitors of TASK-1 and/or TASK-3 channels on the activation threshold of the genioglossus muscle by negative pressure and the collapsibility of the upper airways were investigated in a pig model for obstructive sleep apnoea. Using negative pressure, it is possible to induce collapse and thus obstruction of the upper airways in anaesthetized, spontaneously breathing pigs [Wirth et al., Sleep 36, 699-708 (2013)]. German Landrace pigs were used for the model. Since the nasal axis is in an almost vertical position in humans in a horizontal sleeping position, the pigs in the experiments were fixed in a sitting position (70 degrees), wherein the nose pointed upwards. After nasal administration, the formulation therefore flowed downwards over all regions of the upper airways. The pigs were anaesthetized and tracheotomized. One cannula each was inserted into the rostral and the caudal part of the trachea. Using a T connector, the rostral cannula was connected on the one hand to a device generating negative pressure and on the other hand to the caudal cannula. Using a T connector, the caudal cannula was connected to the rostral cannula and to a tube which allowed spontaneous breathing circumventing the upper airways. By appropriate closing and opening of the tubes it was thus possible for the pig to change from normal nasal breathing to breathing via the caudal cannula during the time when the upper airways were isolated and were connected to the device for generating negative pressure. The muscle activity of the Musculus genioglossus was recorded by electromyogram (EMG). At certain points in time, the collapsibility of the upper airways was tested by having the pig breathe via the caudal cannula and applying negative pressures of −50, −100 and −150 mbar (corresponding to −50, −100 and −150 cm water column (cm H2O)) to the upper airways. This caused the upper airways to collapse, which manifested itself in an interruption of the airflow and a pressure drop in the tube system. This test was conducted prior to administration of the test substance and at certain intervals after administration of the test substance. An appropriately effective test substance could prevent this collapse of the airways in the inspiratory phase. After changeover from nasal breathing to breathing via the caudal cannula, it was not possible to measure any EMG activity of the Musculus genioglossus in the anaesthetized pig. As a further test, the negative pressure at which EMG activity restarted was then determined. This threshold value was, if a test substance was effective, shifted to more positive values. The test was likewise conducted prior to the administration of the test substance and at certain intervals after the administration of the test substance. The test substance was administered by the nasal route. The results shown in the tables which follow were conducted with the compounds listed in Table 1 as Example 1, Example 3 and Example 4. Unless stated otherwise, the data were measured at a negative pressure of −100 mbar (corresponding to −100 cm water column (cm H2O)) on the upper airways. The active ingredients listed in Table 1 as Example 1, Example 3 and Example 4 were dissolved in the various formulations listed in Table 2 below and administered in an amount of 0 μg, 3 μg, 10 μg, 30 μg or 100 μg per pig. The active ingredient formulation or the pure vehicle was each administered with a pipette at a volume of 400 μl in each nostril. The duration of action in this pig model is defined as the time [min] in which a collapse of the upper airways was not observed in any animal, as a mean value of the specified number of animals. A duration of action specified as “>” X min signifies that the experiment was terminated at X min and up to this point a collapse of the upper airways was still not observed in any animal

SMILES: O=C(C1CCCC1)N1CCN(Cc2c(-c3ccc(Br)cc3)nc3ccccn23)CC1 [Example 1, (4-{[2-(4-bromophenyl)imidazo[1,2-a]pyridin-3-yl]methyl}piperazin-1-yl)(cyclopentyl)methanone]
- Duration of action, mean value (Formulation 1 (0% PEG400), 10 μg nasal, reduced pressure -50 mbar): 150 min
- Duration of action, mean value (Formulation 1 (0% PEG400), 10 μg nasal, reduced pressure -100 mbar): 120 min
- Duration of action, mean value (Formulation 3 (20% w/v PEG400), 10 μg nasal, reduced pressure -50 mbar): >210 min
- Duration of action, mean value (Formulation 3 (20% w/v PEG400), 10 μg nasal, reduced pressure -100 mbar): 180 min

SMILES: COc1cccc(C(=O)N2CCN(Cc3c(-c4ccc(Cl)cc4)nc4ccccn34)CC2)n1 [Example 3, (4-{[2-(4-chlorophenyl)imidazo[1,2-a]pyridin-3-yl]methyl}piperazin-1-yl)(6-methoxypyridin-2-yl)methanone]
- Duration of action, mean value (Formulation 1 (phosphate buffer pH 7/polysorbate 80 90/10, 0% PEG400), 3 μg nasal per pig, -100 mbar): 150 min
- Duration of action, mean value (Formulation 1 (phosphate buffer pH 7/polysorbate 80 90/10, 0% PEG400), 30 μg nasal per pig, -100 mbar): 180* min
- Duration of action, mean value (Formulation 2 (100% w/v PEG400), 3 μg nasal, -100 mbar): >240 min
- Duration of action, mean value (Formulation 3 (phosphate buffer pH 7/polysorbate 80/PEG400 70/10/20), 3 μg nasal per pig, -100 mbar): 180 min
- Duration of action, mean value (Formulation 3 (phosphate buffer pH 7/polysorbate 80/PEG400 70/10/20), 30 μg nasal per pig, -100 mbar): 300 min
- Duration of action, mean value (Formulation 4 (5% w/v PEG400, 10% polysorbate 80, 85% phosphate buffer pH 7), 3 μg nasal, -100 mbar): 180 min
- Duration of action, mean value (Formulation 5 (2.5% w/v PEG400, 10% polysorbate 80, 87.5% phosphate buffer pH 7), 3 μg nasal, -100 mbar): 150 min
- Duration of action, mean value (Formulation 6 (20% w/v PEG400, 2.5% w/v glycerol 85%, 10% polysorbate 80, 67.5% phosphate buffer pH 7), 3 μg nasal, -100 mbar): 240 min
- Duration of action, mean value (Formulation 7 (20% w/v propylene glycol, 10% polysorbate 80, 70% phosphate buffer pH 7), 30 μg nasal, -100 mbar): 180 min
- Duration of action, mean value (Formulation 9 (1.25% w/v Na-CMC, 10% polysorbate 80, 88.75% phosphate buffer pH 7, no PEG), 3 μg nasal, -100 mbar): 120 min

SMILES: O=C(c1ccccc1F)N1CCN(Cc2c(-c3ccc(Br)cc3)nc3ccccn23)CC1 [Example 4, (4-{[2-(4-bromophenyl)imidazo[1,2-a]pyridin-3-yl]methyl}piperazin-1-yl)(2-fluorophenyl)methanone]
- Duration of action, mean value (Formulation 1 (0% PEG400), 100 μg nasal, reduced pressure -50 mbar): 180 min
- Duration of action, mean value (Formulation 1 (0% PEG400), 100 μg nasal, reduced pressure -100 mbar): 180 min
- Duration of action, mean value (Formulation 3 (20% w/v PEG400), 100 μg nasal, reduced pressure -50 mbar): >210 min
- Duration of action, mean value (Formulation 3 (20% w/v PEG400), 100 μg nasal, reduced pressure -100 mbar): 180 min
